# Experimental data as given in US5089471A, “Peptidyl beta-aminoacyl aminodiol carbamates as anti-hypertensive agents” (G. D. Searle & Co., priority 1987, dated 1992).
# Square brackets hold non-standard residues; d marks the D form. Peptide text beside a SMILES is read from it. * marks the point of attachment. Sta = CC(C)C[C@H](N)[C@@H](O)CC(=O)O; Isovaleryl = CC(C)CC(=O)*
# How the values were obtained:
# cathepsin D = conditions: Umezawa et al, J. Antibiot. 23:259-262 (1970); cited from earlier work
# acid proteases = conditions: cited from earlier work
# renin = conditions: Umezawa et al, J. Antibiot. 23:259-262 (1970); cited from earlier work
# pepsin = conditions: Umezawa et al, J. Antibiot. 23:259-262 (1970); cited from earlier work
# hog renin = conditions: after the injection of hog renin into nephrectomized rats; Gross et al, Science, 175, 656 (1971); cited from earlier work
# human renin = molecular target: T1, human renin (Homo sapiens, UniProt P00797); assay: in vitro human renin inhibition test (angiotensin I determined by radioimmunoassay); assay type: biochemical; conditions: for relative activity of epimers as human renin inhibitor (in words): epimer of Example 9 versus epimer of Example 10
# T1 construct: purchased National Institute for Biological Standards, London
# T1 sequence (P00797 67-406): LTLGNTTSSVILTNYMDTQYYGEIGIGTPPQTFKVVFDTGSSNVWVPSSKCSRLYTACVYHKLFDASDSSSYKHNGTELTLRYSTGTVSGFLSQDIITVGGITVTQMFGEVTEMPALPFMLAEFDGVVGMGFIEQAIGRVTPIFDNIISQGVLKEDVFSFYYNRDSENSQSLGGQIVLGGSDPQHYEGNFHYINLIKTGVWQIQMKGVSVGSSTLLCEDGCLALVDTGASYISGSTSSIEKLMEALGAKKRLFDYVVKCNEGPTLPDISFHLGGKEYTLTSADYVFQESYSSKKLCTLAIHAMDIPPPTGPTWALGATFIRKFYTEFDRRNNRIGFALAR
# Procedure: Compounds of Formula I were evaluated as inhibitors of human renin in an in vitro assay, as follows: This human renin inhibition test has been previously described in detail [Papaioannou, et al., Clinical and Experimental Hypertension, A7(9), 1243-1257 (1985)]. Human renin was obtained from the National Institute for Biological Standards, London. In a total volume of 0.25 mL 100 mM Tris-acetate buffer at pH 7.4, 25×10^-6 Goldblatt units of renin, 0.05 mL of plasma from human volunteers taking oral contraceptives, 6.0 mM sodium EDTA, 2.4 mM phenylmethyl sulfonyl fluoride, 1.5 mM 8-hydroxyquinoline, 0.4 mg/mL BSA, and 0.024 mg/mL neomycin sulfate were incubated for two hours at 37° C. in the presence or absence of renin inhibitors. The produced angiotensin I was determined by radioimmunoassay (New England Nuclear kit). Compounds of Formula I to be assayed were solubilized in either ethyl alcohol or DMSO and diluted with 100 mM Tris-acetate buffer at pH 7.4 to the appropriate concentration. The final concentration of organic solvent in the reaction mixture was less than 1%. Control incubations at 37° C. were used to correct for effects of organic solvent on renin activity.
# [1] = in vitro, pH 7.4, 37° C., two hours, human plasma
smiles,measurement,setting,value
CC(C)CC(=O)N[C@H](C(=O)N[C@H](C(=O)N[C@@H](CC(C)C)[C@@H](O)CC(=O)N[C@@H](C)C(=O)N[C@@H](CC(C)C)[C@@H](O)CC(=O)O)C(C)C)C(C)C [pepstatin] (Isovaleryl-VV[Sta]A[Sta]-OH),inhibition of cathepsin D (in words),cathepsin D,"inhibitor of aspartyl proteases such as pepsin, cathepsin D"
same,inhibition of acid proteases in addition to renin (in words),acid proteases,inhibiting acid proteases in addition to renin
same,inhibition of renin (in words),renin,"inhibitor of aspartyl proteases such as pepsin, cathepsin D and renin"
same,inhibition of pepsin (in words),pepsin,inhibitor of aspartyl proteases such as pepsin
same,reduction of blood pressure,hog renin,reduce blood pressure in vivo
"CC(C)C[C@H](O)[C@H](O)[C@H](CC1CCCCC1)NC(=O)[C@H](C)CNC(=O)[C@H](Cc1ccccc1)OC(=O)N1CCOCC1 [Example 9, O-(N-morpholinocarbonyl)-3-L-phenyllactyl-α-(R)-methyl-β-alaninamide of (2 S, 3R, 4S)-2-amino-1-cyclohexyl-3,4-dihydroxy-6-methylheptane]",relative activity of epimers as human renin inhibitor (in words),human renin,much more active as a human renin inhibitor than the other epimer of Example 10
same,IC50,human renin; [1],210 nM
"CC(C)C[C@H](O)[C@H](O)[C@H](CC1CCCCC1)NC(=O)C(C)CNC(=O)[C@H](Cc1ccccc1)OC(=O)N1CCOCC1 (stereo partly drawn) [Example 8, O-(N-morpholinocarbonyl)-3-L-phenyllactyl-D,L-α-methyl-β-alaninamide of (2S, 3R, 4S)-2-amino-1-cyclohexyl-3,4-dihydroxy-6-methylheptane]",inhibiting renin (in words),human renin; in vitro,capable of inhibiting renin in vitro
same,IC50,human renin; [1],280 nM
"CC(C)C[C@H](O)[C@H](O)[C@H](CC1CCCCC1)NC(=O)[C@@H](C)CNC(=O)[C@H](Cc1ccccc1)OC(=O)N1CCOCC1 [Example 10, O-(N-morpholinocarbonyl)-3-L-phenyllactyl-α-(S)-methyl-β-alaninamide of (2S, 3R, 4S)-2-amino-1-cyclohexyl-3,4-dihydroxy-6-methylheptane]",inhibition at 1 µM,"human renin; @ 10^-6 M, in vitro, pH 7.4, 37° C., two hours, human plasma",8%
same,relative activity of epimers as human renin inhibitor (in words),human renin,less active epimer
